# ChEMBL document CHEMBL1201862, “PubChem BioAssay data set” (2004)
#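 Method: 48-hour compound exposure of cells in 96-well plates, five concentrations, linear interpolation of endpoints. GI50: concentration for 50% inhibition of growth.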 The source made the active and inactive calls. Rule as the data show it: active = GI50 up to about 1.1 µM and inactive = higher.
# Tests used:
# Test in all cases: NCI anticancer screen, dose series, 48 h
# [1] = test system: SNB-19
# [2] = test system: OVCAR-8
# [3] = test system: HL-60
# [4] = test system: SNB-75
# [5] = test system: M14
# [6] = test system: IGROV-1
# [7] = test system: CCRF-CEM
# [8] = test system: A549
# [9] = test system: HOP-62
# [10] = test system: UACC-257
# [11] = test system: SF-295
# [12] = test system: KM12
# [13] = test system: LOX IMVI
# [14] = test system: NCI-H460
# [15] = test system: SK-MEL-5
# [16] = test system: TK-10
# [17] = test system: SW-620
# [18] = test system: MOLT-4
# [19] = test system: HT-29
# [20] = test system: M19-MEL
# [21] = test system: DLD-1
# [22] = test system: DMS-114
# [23] = test system: CAKI-1
# [24] = test system: LXFL 529
# [25] = test system: SR
# [26] = test system: HCT-116
# [27] = test system: OVCAR-3
# [28] = test system: ACHN
# [29] = test system: SK-MEL-28
# [30] = test system: HCT-15
# [31] = test system: HOP-92
# [32] = test system: HOP-18
# [33] = test system: SN12C
# [34] = test system: NCI-H226
# [35] = test system: SF-268
# [36] = test system: EKVX
# [37] = test system: NCI-H23
# [38] = test system: RXF 393
# [39] = test system: OVCAR-5
# [40] = test system: COLO 205
# [41] = test system: KM-20L2
# [42] = test system: XF498
# [43] = test system: RPMI-8226
# [44] = test system: SF-539
# [45] = test system: OVCAR-4
# [46] = test system: K562
# [47] = test system: A498
# [48] = test system: 786-0
# [49] = test system: UACC-62
# [50] = test system: SNB-78
# [51] = test system: U-251
# [52] = test system: Malme-3M
# [53] = test system: HCC 2998
smiles,measurement,setting,value
O=C(Nc1ccc(Cl)cc1C(F)(F)F)C(=O)C1CCCS1(=O)=O (stereo not drawn),GI50,[1],> 100 µM (inactive)
same,GI50,[2],> 100 µM (inactive)
same,GI50,[3],> 100 µM (inactive)
same,GI50,[4],> 100 µM (inactive)
same,GI50,[5],> 100 µM (inactive)
same,GI50,[6],> 10 µM (inactive)
same,GI50,[7],> 100 µM (inactive)
same,GI50,[8],> 100 µM (inactive)
same,GI50,[9],> 100 µM (inactive)
same,GI50,[10],> 100 µM (inactive)
same,GI50,[11],> 100 µM (inactive)
same,GI50,[12],> 100 µM (inactive)
same,GI50,[13],> 100 µM (inactive)
same,GI50,[14],> 100 µM (inactive)
same,GI50,[15],> 100 µM (inactive)
same,GI50,[16],> 100 µM (inactive)
same,GI50,[17],> 10 µM (inactive)
same,GI50,[18],> 100 µM (inactive)
same,GI50,[19],> 100 µM (inactive)
same,GI50,[20],> 100 µM (inactive)
same,GI50,[21],> 100 µM (inactive)
same,GI50,[22],> 100 µM (inactive)
same,GI50,[23],> 100 µM (inactive)
same,GI50,[24],> 100 µM (inactive)
same,GI50,[25],> 100 µM (inactive)
same,GI50,[26],> 100 µM (inactive)
same,GI50,[27],> 100 µM (inactive)
same,GI50,[28],> 100 µM (inactive)
same,GI50,[29],> 100 µM (inactive)
same,GI50,[30],> 100 µM
same,GI50,[31],> 10 µM (inactive)
same,GI50,[32],> 100 µM (inactive)
same,GI50,[33],> 100 µM (inactive)
same,GI50,[34],> 100 µM (inactive)
same,GI50,[35],> 100 µM (inactive)
same,GI50,[36],> 100 µM (inactive)
same,GI50,[37],> 100 µM (inactive)
same,GI50,[38],> 100 µM (inactive)
same,GI50,[39],> 100 µM (inactive)
same,GI50,[40],> 100 µM (inactive)
same,GI50,[41],> 100 µM (inactive)
same,GI50,[42],> 100 µM (inactive)
same,GI50,[43],> 100 µM (inactive)
same,GI50,[44],> 100 µM (inactive)
same,GI50,[45],> 100 µM (inactive)
same,GI50,[46],> 100 µM (inactive)
same,GI50,[47],> 100 µM (inactive)
same,GI50,[48],> 100 µM (inactive)
same,GI50,[49],> 100 µM (inactive)
same,GI50,[50],> 100 µM (inactive)
same,GI50,[51],> 100 µM (inactive)
same,GI50,[52],> 100 µM (inactive)
same,GI50,[53],> 100 µM (inactive)
